Measured values taken from ChEMBL document CHEMBL5053530, “Neopetrosidines A-D, pyridine alkaloids isolated from the marine sponge Neopetrosia chaliniformis and their cell cycle elongation activity” (Bioorg Med Chem, 2021).
The source made the active and inactive calls. The calls are words filed in the database; no cut-off is given here.

Tests used:
[1] = system: HeLa/Fucci2; assay: Induction of cell cycle duration in human HeLa/Fucci2 cells assessed as increase in S/G2/M phase duration measured every 20 mins for 96 hrs by time-lapse imaging analysis; assay type: functional, cell-based; conditions: dose […]
[2] = system: HeLa; assay: Induction of mitochondria membrane potential loss in human HeLa cells at 5 uM measured after 1 hr by JC1 dye based fluorescence microscopic analysis; assay type: functional, cell-based
[3] = system: HeLa/Fucci2; assay: Induction of cell cycle duration in human HeLa/Fucci2 cells assessed as increase in G1/S phase duration measured every 20 mins for 96 hrs by time-lapse imaging analysis; assay type: functional, cell-based; conditions: dose 1.25-10 µM
[4] = Effect on glycolysis in human HeLa/Fucci2 cells assessed as increase in lactate production per ug protein at 5 uM incubated for 24 hrs by LDH Assay (reference value: 19.6 +/- 6.2 nmol); assay type: functional
[5] = Induction of cell cycle duration in human HeLa/Fucci2 cells assessed as increase in G1/S phase duration at 5 uM measured every 20 mins for 96 hrs by time-lapse imaging analysis (reference value: 4.8 +/- 0.3 hrs); assay type: functional
[6] = system: HeLa/Fucci2; assay: Induction of cell cycle duration in human HeLa/Fucci2 cells assessed as increase in G1 phase duration measured every 20 mins for 96 hrs by time-lapse imaging analysis; assay type: functional, cell-based; conditions: dose 1.25-10 µM
[7] = system: HeLa/Fucci2; assay: Cytotoxicity against human HeLa/Fucci2 cells assessed as reduction in cell growth measured after 3 days by MTT assay; assay type: functional, cell-based; conditions: HeLa/Fucci2, 72 h
[8] = Induction of cell cycle duration in human HeLa/Fucci2 cells assessed as increase in G1 phase duration at 5 uM measured every 20 mins for 96 hrs by time-lapse imaging analysis (reference value: 5 +/- 0.8 hrs); assay type: functional
[9] = Induction of cell cycle duration in human HeLa/Fucci2 cells assessed as increase in S/G2/M phase duration at 5 uM measured every 20 mins for 96 hrs by time-lapse imaging analysis (reference value: 7.1 +/- 0.7 hrs); assay type: functional
[10] = system: HeLa/Fucci2; assay: Antiproliferative activity against human HeLa/Fucci2 cells reduction in cellular ATP production incubated for 4 hrs by CellTiter-Glo cell viability assay; assay type: functional, cell-based; conditions: dose 1.3-5 µM
[11] = system: HeLa/Fucci2; assay: Antiproliferative activity against human HeLa/Fucci2 cells assessed as reduction in cell viability incubated for 48 hrs under glucose-limiting condition by LDH assay; assay type: functional, cell-based
[12] = Effect on glycolysis in human HeLa/Fucci2 cells assessed as increase in lactate production per ug protein at 0.1 uM incubated for 24 hrs by LDH Assay (reference value: 19.6 +/- 6.2 nmol); assay type: functional

C1=C\CCCCCC[n+]2cccc(c2)CCCCCCCCCCCCCC[n+]2cccc(c2)CCCCCC/1.O=C[O-].O=C[O-]
Activity [1]: Dose-dependent effect | Activity [2]: Active | Activity [3]: Dose-dependent effect | Activity [4]: 27.9 nmol | Time [5]: 9.3 h | Activity [6]: Dose-dependent effect | IC50 [7]: 1200 nM | Time [8]: 12 h | Time [9]: 14.7 h | Activity [10]: Dose-dependent effect | Activity [11]: Active

C1=C\CCCCCCc2ccc[n+](c2)CCCCCC/C=C\CCCCCCc2ccc[n+](c2)CCCCCCCC/1
IC50 [7]: 2600 nM

C1=C\CCCCCC[n+]2cccc(c2)CCCCCC/C=C\CCCCCC[n+]2cccc(c2)CCCCCC/1
IC50 [7]: 2400 nM

C=C(C)[C@H]1Cc2c(ccc3c2O[C@@H]2COc4cc(OC)c(OC)cc4[C@@H]2C3=O)O1 [ROTENONE]
Activity [12]: 34.5 nmol

C1=C\CCCCCC[n+]2cccc(c2)CCCCCC/C=C\CCCCCC[n+]2cccc(c2)CCCCCCCC/1
IC50 [7]: 2600 nM
